BindingDB's records for doi:10.1016/j.bioorg.2015.10.006 (University of Karachi, 2015)

Biological target: T1, Thymidine phosphorylase (Escherichia coli (strain SMS-3-5 / SECEC), UniProt B1LEI7)
T1 sequence (B1LEI7 whole entry): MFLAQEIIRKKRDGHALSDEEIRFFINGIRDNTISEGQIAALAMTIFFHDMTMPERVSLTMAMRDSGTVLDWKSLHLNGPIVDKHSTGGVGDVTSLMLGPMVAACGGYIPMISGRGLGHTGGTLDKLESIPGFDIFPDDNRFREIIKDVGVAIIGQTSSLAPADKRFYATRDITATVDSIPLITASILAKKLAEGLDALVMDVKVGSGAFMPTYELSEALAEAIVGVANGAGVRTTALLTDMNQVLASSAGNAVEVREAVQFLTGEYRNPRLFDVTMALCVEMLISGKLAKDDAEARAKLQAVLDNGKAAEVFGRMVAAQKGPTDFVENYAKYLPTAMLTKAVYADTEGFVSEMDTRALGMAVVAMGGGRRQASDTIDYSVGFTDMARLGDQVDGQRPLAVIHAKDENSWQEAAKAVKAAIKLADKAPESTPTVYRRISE
Experiment: Thymidine Phosphorylase Inhibition Assay
Settings: pH 7
Description: TP inhibition assay was performed spectrophotometrically. The method of Bera et al. was followed with slight modifications. Reaction mixture of 200 µL, contained 20 µL of enzyme (0.058 unit/well), 150 µL of potassium phosphate buffer (pH 7.0, 50 mM), and 10 µL of test compound (0.5 mM). The reaction mixture was then incubated for 10 min at 30 °C. […] Every experiment was run in triplicate. 7-Deazaxanthine was used as positive control.

`O=c1[nH]c(-c2cccc(O)c2)nc2ccccc12` and `O=c1[nH]c(-c2ccc(O)cc2)nc2ccccc12` are within 1.5-fold of each other in IC50: 295 µM for the first, 234 µM for the second.

Compared with `COc1ccc(-c2nc3ccccc3c(=O)[nH]2)cc1O`, `O=c1[nH]c(-c2ccc(O)c(O)c2)nc2ccccc12` is 3.9-fold lower in IC50: 169 µM for the first, 42.9 µM for the second.

Going from `O=c1[nH]c(-c2cc(O)ccc2O)nc2ccccc12` to `CCOc1cc(-c2nc3ccccc3c(=O)[nH]2)ccc1O`, the IC50 rises from 59.5 µM to 256 µM (4.3-fold). The first is the more potent here.
